Measurements: the NIST ThermoML archive (doi:10.1016/j.jct.2008.08.013)
± gives the expanded uncertainty stated by the source.

Test: xn = mol fraction of the nth substance listed
Conditions: 101 kPa, Liquid, Vibrating tube method

Nc1ccccc1 [aniline] + ClCCl
mass density [kg/m3]
Conditions | 288.15 K | 293.15 K | 298.15 K | 303.15 K
x2 = 0.0218 | 1030.69 ± 0.1 | 1025.78 ± 0.1 | 1021.79 ± 0.1 | 1017.43 ± 0.09
x2 = 0.1003 | 1048.42 ± 0.1 | 1043.36 ± 0.1 | 1039.19 ± 0.1 | 1034.68 ± 0.1
x2 = 0.2004 | 1072.39 ± 0.11 | 1067.17 ± 0.11 | 1062.72 ± 0.1 | 1057.97 ± 0.1
x2 = 0.2507 | 1085.02 ± 0.11 | 1079.67 ± 0.11 | 1075.06 ± 0.11 | 1070.21 ± 0.1
x2 = 0.2992 | 1097.6 ± 0.11 | 1092.14 ± 0.11 | 1087.38 ± 0.11 | 1082.37 ± 0.11
x2 = 0.3502 | 1111.25 ± 0.12 | 1105.64 ± 0.11 | 1100.68 ± 0.11 | 1095.52 ± 0.11
x2 = 0.3985 | 1124.6 ± 0.12 | 1118.83 ± 0.12 | 1113.68 ± 0.12 | 1108.38 ± 0.11
x2 = 0.4998 | 1153.99 ± 0.13 | 1147.9 ± 0.13 | 1142.28 ± 0.12 | 1136.65 ± 0.12
x2 = 0.5529 | 1170.24 ± 0.13 | 1164 ± 0.13 | 1158.09 ± 0.13 | 1152.21 ± 0.13
x2 = 0.6023 | 1185.94 ± 0.14 | 1179.46 ± 0.14 | 1173.3 ± 0.13 | 1167.19 ± 0.13
x2 = 0.6504 | 1201.8 ± 0.14 | 1195.11 ± 0.14 | 1188.66 ± 0.14 | 1182.34 ± 0.13
x2 = 0.6992 | 1218.48 ± 0.15 | 1211.56 ± 0.14 | 1204.8 ± 0.14 | 1198.22 ± 0.14
x2 = 0.7506 | 1236.69 ± 0.15 | 1229.48 ± 0.15 | 1222.36 ± 0.15 | 1215.59 ± 0.14
x2 = 0.8003 | 1254.94 ± 0.16 | 1247.49 ± 0.16 | 1239.98 ± 0.15 | 1232.77 ± 0.15
x2 = 0.8997 | 1293.47 ± 0.17 | 1285.36 ± 0.17 | 1277.01 ± 0.16 | 1269.11 ± 0.16
x2 = 0.9298 | 1305.66 ± 0.17 | 1297.3 ± 0.17 | 1288.69 ± 0.17 | 1280.69 ± 0.16
x2 = 0.9505 | 1314.14 ± 0.18 | 1305.64 ± 0.17 | 1296.8 ± 0.17 | 1288.52 ± 0.17
x2 = 0.9799 | 1326.37 ± 0.18 | 1317.62 ± 0.18 | 1308.49 ± 0.17 | 1299.98 ± 0.17
